# Experimental data published in PMC6199744, “Development of Chemical Proteomics for the Folateome and Analysis of the Kinetoplastid Folateome” (ACS Infectious Diseases, 2018).
# Read-outs that look alike come from different tables or passages of the source.
# Test system: T. brucei lysate proteins
# Assay type: binding, Trypanosoma brucei
smiles,measurement,setting,value
Nc1nc2cccc(-c3ccccc3)c2n1Cc1ccc(Cl)c(Cl)c1 [compound 3],fold change - vehicle control,"protein TB927.7.5340 HY[…], CONSERVED",0.45
same,fold change - vehicle control,"protein TB927.7.7430 ATP SYNTHASE ALPHA CHAIN, MIT[…]",0.95
same,fold change - vehicle control,protein TB927.8.1990 PEROXIDOXIN,0.95
same,fold change - vehicle control,"protein TB927.8.4720 AMINO ACID TRANSPORTER, PUTATIVE",0.82
same,fold change - vehicle control,"protein TB927.8.890 SMALL GTP-BINDING PROTEIN RAB1, PUTATIVE",0.96
same,fold change,"relative to vehicle control = 1, protein TB09.160.2550 RIBOSOMAL PROTEIN S7, PUTATIVE",0.97
same,fold change,"relative to vehicle control = 1, protein TB09.160.3270 ATP-DEPENDENT DEAD BOX HELICASE, PUTATIVE",1
same,fold change,"relative to vehicle control = 1, protein TB09.160.4250 TR[…]",0.95
same,fold change,"relative to vehicle control = 1, protein TB09.211.3540 GLYCEROL KINASE, GLYCOSOMAL",0.92
same,fold change,"relative to vehicle control = 1, protein TB11.01.1270 NUCLEIC ACID BINDING PROTEIN, PUTATIVE",0.99
same,fold change,"relative to vehicle control = 1, protein TB11.02.1135 DYNEIN LIGHT CHAIN, PUTATIVE",1
same,fold change,"relative to vehicle control = 1, protein TB11.02.2960 MIT[…] PROTEIN, PUTATIVE",0.96
same,fold change,"relative to vehicle control = 1, protein TB11.02.4700 14-3-3 PROTEIN",0.87
same,fold change,"relative to vehicle control = 1, protein TB11.03.0815 DYNEIN LIGHT CHAIN",0.99
same,fold change,"relative to vehicle control = 1, protein TB427TMP.01.0480 HY[…], CONSERVED",0.95
same,fold change,"relative to vehicle control = 1, protein TB427TMP.01.1400 GLYCYL-TRNA SYNTHETASE, PUTATIVE",0.9
same,fold change,"relative to vehicle control = 1, protein TB427TMP.01.1680 POLYUBIQUITIN, PUTATIVE",0.93
same,fold change,"relative to vehicle control = 1, protein TB427TMP.01.1830 HY[…], CONSERVED",1
same,fold change,"relative to vehicle control = 1, protein TB427TMP.01.3370 […] PROTEIN, PUTATIVE",0.94
same,fold change,"relative to vehicle control = 1, protein TB427TMP.01.6880 CYTOSOLIC COAT PROTEIN, PUTATIVE",0.81
same,fold change,"relative to vehicle control = 1, protein TB427TMP.01.7530 HY[…], CONSERVED",0.93
same,fold change,"relative to vehicle control = 1, protein TB427TMP.02.1120 ADENYL[…], PUTATIVE",0.99
same,fold change,"relative to vehicle control = 1, protein TB427TMP.02.1460 HY[…], CONSERVED",0.95
same,fold change,"relative to vehicle control = 1, protein TB427TMP.02.2120 NUCLEOPORIN 48",0.94
same,fold change,"relative to vehicle control = 1, protein TB427TMP.02.2970 KINESIN, PUTATIVE",0.91
same,fold change,"relative to vehicle control = 1, protein TB427TMP.02.3120 MALIC ENZYME, PUTATIVE",0.82
same,fold change,"relative to vehicle control = 1, protein TB427TMP.02.4550 HY[…], CONSERVED",1
same,fold change,"relative to vehicle control = 1, protein TB427TMP.02.5450 GLUCOSE-REGULATED PROTEIN 78, PUTATIVE",0.93
same,fold change,"relative to vehicle control = 1, protein TB427TMP.03.0090 RIBOKINASE, PUTATIVE",0.84
same,fold change,"relative to vehicle control = 1, protein TB427TMP.160.4770 PROTEIN KINASE, PUTATIVE",0.93
same,fold change,"relative to vehicle control = 1, protein TB427TMP.160.4910 FLAVOPROTEIN MONOOXYGENASE, PUTATIVE",0.97
same,fold change,"relative to vehicle control = 1, protein TB427TMP.18.0005 HY[…], CONSERVED",0.93
same,fold change,"relative to vehicle control = 1, protein TB427TMP.22.0004 HY[…], CONSERVED",0.97
same,fold change,"relative to vehicle control = 1, protein TB427TMP.39.0006 T[…] EIF2B DELTA SUBUNIT, PUTATIVE",0.9
same,fold change,"relative to vehicle control = 1, protein TB427.01.4050 PROTEIN P[…] EF-HAND DOMAINS (PPEF)",0.93
same,fold change,"relative to vehicle control = 1, protein TB427.02.1170 RETRO[…] SPOT (RHS) PROTEIN, PUTATIVE",0.96
same,fold change,"relative to vehicle control = 1, protein TB427.02.6220 ADENOSINE TRANSPORTER 2, PUTATIVE",0.98
same,fold change,"relative to vehicle control = 1, protein TB427.03.3160 POLY(A) POLYMERASE",0.77
same,fold change,"relative to vehicle control = 1, protein TB427.03.3560 HY[…], CONSERVED",0.83
same,fold change,"relative to vehicle control = 1, protein TB427.03.5420 PROTEIN TRANSPORT PROTEIN SEC24",0.9
same,fold change,"relative to vehicle control = 1, protein TB427.04.1510 PHOSPHOLIPID-TRA[…], PUTATIVE",0.86
same,fold change,"relative to vehicle control = 1, protein TB427.05.2320 HY[…], CONSERVED",0.8
same,fold change,"relative to vehicle control = 1, protein TB427.05.300 THYMINE-7-HYDROXYLASE, PUTATIVE",0.82
same,fold change,"relative to vehicle control = 1, protein TB427.05.4530 FATTY ACID ELONGASE, PUTATIVE",0.77
same,fold change,"relative to vehicle control = 1, protein TB427.05.520 STOMATIN-LIKE PROTEIN, PUTATIVE",1
same,fold change,"relative to vehicle control = 1, protein TB427.06.2550 RNA-BINDING PROTEIN, PUTATIVE",1.2
same,fold change,"relative to vehicle control = 1, protein TB427.06.3650 ADP-RI[…], PUTATIVE",0.91
same,fold change,"relative to vehicle control = 1, protein TB427.06.3860 HY[…], CONSERVED",0.97
same,fold change,"relative to vehicle control = 1, protein TB427.07.2340 40S RIBOSOMAL PROTEIN S15, PUTATIVE",0.87
same,fold change,"relative to vehicle control = 1, protein TB427.07.2570 MRNA […], PUTATIVE",0.63
same,fold change,"relative to vehicle control = 1, protein TB427.07.4180 FATTY ACID ELONGASE, PUTATIVE",0.92
same,fold change,"relative to vehicle control = 1, protein TB427.07.7500 THYMINE-7-HYDROXYLASE, PUTATIVE",0.88
same,fold change,"relative to vehicle control = 1, protein TB427.08.3150 T-COMPLEX PROTEIN 1, GAMMA SUBUNIT, PUTATIVE",0.99
same,fold change,"relative to vehicle control = 1, protein TB427.08.3490 HY[…], CONSERVED",0.95
same,fold change,"relative to vehicle control = 1, protein TB427.08.5460 FLAGELLAR CALCIUM-BINDING PROTEIN",0.72
same,fold change,"relative to vehicle control = 1, protein TB427.08.6110 HY[…], CONSERVED",0.82
same,fold change,"relative to vehicle control = 1, protein TB427.10.11930 NAD OR NADP DEPENDENT OXIDOREDUCTASE, PUTATIVE",0.78
same,fold change,"relative to vehicle control = 1, protein TB427.10.12510 P-TYPE H+-ATPASE, PUTATIVE",1
same,fold change,"relative to vehicle control = 1, protein TB427.10.13110 DYNEIN LIGHT CHAIN, PUTATIVE",0.88
same,fold change,"relative to vehicle control = 1, protein TB427.10.13880 HY[…], CONSERVED",0.88
same,fold change,"relative to vehicle control = 1, protein TB427.10.14140 PYRUVATE KINASE 1",0.93
same,fold change,"relative to vehicle control = 1, protein TB427.10.14910 SA[…] GLYCOPROTEIN, PUTATIVE",0.83
same,fold change,"relative to vehicle control = 1, protein TB427.10.15180 […] PROTEIN, PUTATIVE",1.2
same,fold change,"relative to vehicle control = 1, protein TB427.10.2350 PYRUVATE DEH[…] E3 BINDING PROTEIN, PUTATIVE",1
same,fold change,"relative to vehicle control = 1, protein TB427.10.4940 NUCLEAR DBF2-RELATED KINASE",0.8
same,fold change,"relative to vehicle control = 1, protein TB427.10.7630 HY[…], CONSERVED",0.97
same,fold change,"relative to vehicle control = 1, protein TB427.10.9800 60S RIBOSOMAL PROTEIN L22",0.82
same,fold change,"relative to vehicle control = 1, protein TB927.10.13360 […] TU, PUTATIVE",0.96
same,fold change,"relative to vehicle control = 1, protein TB927.1.2330 BETA TUBULIN",0.96
same,fold change,"relative to vehicle control = 1, protein TB927.1.2400 ALPHA TUBULIN",0.96
same,fold change,"relative to vehicle control = 1, protein TB927.10.3280 60S RIBOSOMAL PROTEINS L38, PUTATIVE",0.99
same,fold change,"relative to vehicle control = 1, protein TB927.10.4180 TFIIF-[…] PHOSPHATASE, PUTATIVE",0.97
same,fold change,"relative to vehicle control = 1, protein TB927.10.4690 DYNEIN LIGHT CHAIN, PUTATIVE",0.9
same,fold change,"relative to vehicle control = 1, protein TB927.10.5330 40S RIBOSOMAL PROTEIN S18, PUTATIVE",0.74
same,fold change,"relative to vehicle control = 1, protein TB927.10.6670 DYNEIN LIGHT CHAIN, PUTATIVE",0.92
same,fold change,"relative to vehicle control = 1, protein TB927.2.2440 […]-ATPASE SUBUNIT 6",2.27
same,fold change,"relative to vehicle control = 1, protein TB927.3.1120 GTP-BINDING NUCLEAR PROTEIN RTB2, PUTATIVE",0.9
same,fold change,"relative to vehicle control = 1, protein TB927.3.3490 HIGH MOBILITY GROUP PROTEIN, PUTATIVE",0.89
same,fold change,"relative to vehicle control = 1, protein TB927.3.4360 40S RIBOSOMAL PROTEIN S15A, PUTATIVE",1.3
same,fold change,"relative to vehicle control = 1, protein TB927.4.4650 […] SYNTHASE, PUTATIVE",0.72
same,fold change,"relative to vehicle control = 1, protein TB927.5.1930 HY[…], CONSERVED",0.83
same,fold change,"relative to vehicle control = 1, protein TB927.6.4140 PAR[…] COMPONENT, PUTATIVE",0.9
same,fold change,"relative to vehicle control = 1, protein TB927.7.2500 […] SUBUNIT 1",0.91
same,fold change,"relative to vehicle control = 1, protein TB927.7.4500 HY[…], CONSERVED",0.87
same,fold change,"relative to vehicle control = 1, protein TB927.8.1510 ATP-DEPENDENT DEAD/H RNA HELICASE, PUTATIVE",1
same,fold change,"vs vehicle control, protein TB09.160.3710 PRO[…] NUCLEAR ANTIGEN (PCNA), PUTATIVE",0.94
same,fold change,"vs vehicle control, protein TB11.01.4370 HY[…], CONSERVED",0.98
same,fold change,"vs vehicle control, protein TB427TMP.01.8510 T-COMPLEX PROTEIN 1, ALPHA SUBUNIT, PUTATIVE",0.9
same,fold change,"vs vehicle control, protein TB427.01.1670 HY[…], CONSERVED",0.93
same,fold change,"vs vehicle control, protein TB427.03.4750 AMINOPEPTIDASE, PUTATIVE",0.96
same,fold change,"vs vehicle control, protein TB427.05.3170 RIBOSE-PHOSPHATE PYROPHOSPHOKINASE, PUTATIVE",0.92
same,fold change,"vs vehicle control, protein TB427.06.1070 HY[…], CONSERVED",0.95
same,fold change,"vs vehicle control, protein TB427.06.4890 S-ADENOSYL[…], PUTATIVE",0.98
same,fold change,"vs vehicle control, protein TB427.08.3660 PROTEIN TRANSPORT PROTEIN SEC23",0.95
same,fold change,"vs vehicle control, protein TB427.10.10980 HEAT SHOCK PROTEIN 83",0.99
same,fold change,"vs vehicle control, protein TB427.10.11760 PUMILIO/PUF RNA BINDING PROTEIN 6",0.91
same,fold change,"vs vehicle control, protein TB427.10.14550 ATP-DEPENDENT DEAD/H RNA HELICASE, PUTATIVE",0.99
same,fold change,"vs vehicle control, protein TB427.10.2290 CHAPERONE PROTEIN DNAJ, PUTATIVE",0.93
same,fold change,"vs vehicle control, protein TB927.5.1630 HY[…], CONSERVED",0.91
same,fold change,"vs vehicle control, protein TB927.6.4980 40S RIBOSOMAL PROTEIN S14",1.1
